From EP0089139A2, “Antibiotics, their preparation and use” (BEECHAM GROUP PLC, priority 1982, dated 1983)
≈ marks a conversion by molar mass, not a printed value. Where two headings read alike, the source gives them in different places.

Legend:
Assay in all cases: standard MIC test
Type in all cases: cell-based
Escherichia coli 0111 = test system: Escherichia coli 0111
Text: (§1) In a standard MIC test the following data were obtained.

[1] = test system: Salmonella typhimurium CT10; settings: Salmonella enterica
Text: as §1

[2] = test system: Staphylococcus aureus Russell
Text: as §1

E.coli JT39 = settings: Escherichia coli
Text: as §1

| Compound | MIC (Escherichia coli 0111) [µg/mL] | MIC ([1]; TYPHIMURIUM) [µg/mL] | MIC ([2]; Staphylococcus aureus) [µg/mL] | MIC (E.coli JT39; E.coli JT39, read-out: M.I.C) [µg/mL] | MIC ([1]; Salmonella typhimurium CT10, read-out: MIC) [µg/mL] | MIC ([2]; Staphylococcus aureus Russell, read-out: MIC) [µg/mL] | MIC (E.coli JT39; JT39) [µg/mL] |
| --- | --- | --- | --- | --- | --- | --- | --- |
| C[C@H](O)[C@@H]1C(=O)N2C(C(=O)[O-])=C(Sc3ncccn3)[C@H](C)[C@@H]12.[Na+] (racemic) [Example 16, Sodium (4RS,5RS,6RS)-4-methyl-6-[(1SR)-1-hydroxyethyl]-3-(pyrimidin-2-ylthio)-7-oxo-1-azabicyclo[3.2.0]hept-2-ene-2-carboxylate] | 1.6 | 1.6 | 0.4 |  |  |  |  |
| C[C@@H](O)[C@H]1C(=O)N2C(C(=O)O)=C(Sc3ncccn3)[C@H](C)[C@H]12 (racemic) [Example 40] |  |  |  | 1.6 (≈ 4.98 µM) | 6.2 (≈ 19.3 µM) | 0.4 (≈ 1.24 µM) |  |
| C[C@@H]1C(Sc2ncccn2)=C(C(=O)[O-])N2C(=O)[C@H]([C@@H](C)O)[C@@H]12.[Na+] [Example 30, Sodium (4S,5S,6S)-4-methyl-6-[(1R)-1-hydroxyethyl]-3-(pyrimidin-2-ylthio)-7-oxo-1-azabicyclo [3.2.0] hept-2-ene-2-carboxylate] |  | 3.1 | 0.8 |  |  |  | 0.8 |
